Data taken from PMC5575657, “Characterization and Expression Profiling of Camellia sinensis Cinnamate 4-hydroxylase Genes in Phenylpropanoid Pathways” (Genes, 2017).

How the values were obtained:
Assay in all cases: HPLC of p-coumaric acid formed in yeast culture
Format in all cases: cell-based
Settings in all cases: 0.2 mM substrate fed to yeast culture, 28 °C, 1 h; product p-coumaric acid; empty vector control
CsC4Ha = target: T1, CsC4Ha (Camellia sinensis, UniProt A0A286QXW9)
T1 construct: gene C4Ha; cloning reverse primer keeps the stop codon
T1 sequence (A0A286QXW9 1-505): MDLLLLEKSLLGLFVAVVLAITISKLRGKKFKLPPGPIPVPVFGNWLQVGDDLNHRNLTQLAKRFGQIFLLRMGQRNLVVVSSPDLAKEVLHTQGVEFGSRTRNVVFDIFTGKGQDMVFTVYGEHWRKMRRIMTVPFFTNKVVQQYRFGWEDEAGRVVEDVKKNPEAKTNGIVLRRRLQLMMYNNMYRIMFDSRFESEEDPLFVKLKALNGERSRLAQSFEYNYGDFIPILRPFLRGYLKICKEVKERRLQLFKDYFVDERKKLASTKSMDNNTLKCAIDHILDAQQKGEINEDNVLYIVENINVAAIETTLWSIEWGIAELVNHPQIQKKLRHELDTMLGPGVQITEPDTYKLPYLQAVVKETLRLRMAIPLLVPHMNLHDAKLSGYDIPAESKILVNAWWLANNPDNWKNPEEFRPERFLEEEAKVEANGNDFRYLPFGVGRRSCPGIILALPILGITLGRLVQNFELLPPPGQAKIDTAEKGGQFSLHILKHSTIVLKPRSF

CsC4Hc = target: T2, CsC4Hc (Camellia sinensis, UniProt A0A286QXW5)
T2 construct: gene C4Hc; cloning reverse primer keeps the stop codon
T2 sequence (A0A286QXW5 1-544): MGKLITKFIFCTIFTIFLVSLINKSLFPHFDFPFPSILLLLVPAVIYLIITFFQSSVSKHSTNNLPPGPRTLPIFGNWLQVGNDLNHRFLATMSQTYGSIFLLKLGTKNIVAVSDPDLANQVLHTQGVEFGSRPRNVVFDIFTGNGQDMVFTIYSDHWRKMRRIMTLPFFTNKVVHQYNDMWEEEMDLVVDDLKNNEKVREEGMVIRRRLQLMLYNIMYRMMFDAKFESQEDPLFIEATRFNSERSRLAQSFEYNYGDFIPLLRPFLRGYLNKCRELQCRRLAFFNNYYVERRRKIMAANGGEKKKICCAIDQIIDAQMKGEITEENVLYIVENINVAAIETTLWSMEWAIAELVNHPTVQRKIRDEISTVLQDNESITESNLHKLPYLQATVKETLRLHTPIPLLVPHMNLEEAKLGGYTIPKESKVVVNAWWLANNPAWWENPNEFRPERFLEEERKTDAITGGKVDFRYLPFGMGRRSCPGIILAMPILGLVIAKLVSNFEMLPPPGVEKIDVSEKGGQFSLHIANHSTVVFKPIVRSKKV

CsC4Hb = target: T3, CsC4Hb (Camellia sinensis, UniProt A0A286QXW8)
T3 construct: gene C4Hb; cloning reverse primer keeps the stop codon
T3 sequence (A0A286QXW8 1-505): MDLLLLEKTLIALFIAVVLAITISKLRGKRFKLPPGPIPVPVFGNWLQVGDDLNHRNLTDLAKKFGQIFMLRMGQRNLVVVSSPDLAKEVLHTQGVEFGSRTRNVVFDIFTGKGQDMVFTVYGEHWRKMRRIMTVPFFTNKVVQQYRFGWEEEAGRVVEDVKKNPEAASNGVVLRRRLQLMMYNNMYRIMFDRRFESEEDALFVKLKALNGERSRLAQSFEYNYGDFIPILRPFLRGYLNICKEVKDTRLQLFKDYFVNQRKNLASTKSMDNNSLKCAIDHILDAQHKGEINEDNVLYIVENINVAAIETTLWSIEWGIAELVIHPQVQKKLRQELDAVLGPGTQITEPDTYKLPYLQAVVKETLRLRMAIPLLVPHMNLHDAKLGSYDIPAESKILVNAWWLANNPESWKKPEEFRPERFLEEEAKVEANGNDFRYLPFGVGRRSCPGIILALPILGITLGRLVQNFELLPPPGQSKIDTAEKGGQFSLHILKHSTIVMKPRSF

O=C(O)/C=C/c1ccccc1 [trans-cinnamic acid]
HPLC of p-coumaric acid formed in yeast culture (CsC4Ha): three recombinant CsC4Hs are able to convert t-cinnamate to yield p-coumarate when expressed in yeast
HPLC of p-coumaric acid formed in yeast culture (CsC4Hc): three recombinant CsC4Hs are able to convert t-cinnamate to yield p-coumarate when expressed in yeast
HPLC of p-coumaric acid formed in yeast culture (CsC4Hb): three recombinant CsC4Hs are able to convert t-cinnamate to yield p-coumarate when expressed in yeast
